Measurements from PMC10700347, “Semisynthesis of 5-O-ester derivatives of renieramycin T and their cytotoxicity against non-small-cell lung cancer cell lines” (Scientific Reports, 2023).
Where two headings read alike, the source gives them in different places.

Assays:
Type in all cases: cell-based
[1] = system: H292 non-small-cell lung cancer cell line; assay: cells; conditions: for IC50: H292, MTT, 72 h, read-out: IC50 ± S.D. H292
Experimental: (§1) The in vitro cytotoxicity of all the semisynthesized esters and their precursors against H292 and H460 human NSCLC cell lines was analyzed based on the mitochondrial dehydrogenase activity via the MTT assay[43] (Table 1). The compounds were tested at doses of 1–250 nM. Cisplatin and doxorubicin, which are the standard chemotherapeutic drugs for the treatment of NSCLC, were used as positive controls. […] However, the extended use of 1 is limited by the concerns for unwanted necrosis, which is an unprogrammed form of cell death caused by the presence of two quinone moieties. […] The IC50 values of the 5-O-ester derivatives 3a, 3b, 3d, 3h, 3i, and 3k were in the same range as the mother compound 1.
(§2) The in vitro cytotoxicity of compounds 3a–3o, 4a, and 4b was determined against the H292 and H460 NSCLC cell lines by the MTT colorimetric assay. Each compound was dissolved in DMSO to prepare a 10 mM stock solution. Both the H292 and H460 cells were cultured in RPMI 1640 medium supplemented with 2 mM L-glutamine, 10% FBS, and 100 units/mL of penicillin–streptomycin at 37 °C under 5% CO2. The NSCLC cells were trypsinized and seeded with a density of 5 × 10^3 cells/well in a 96-well plate, followed by overnight incubation. Serial dilutions of the test compounds ranging from 1 to 250 nM were prepared in the presence of DMSO (< 0.2% v/v). […] After incubation, formazan crystals were solubilized by adding 100 µL of DMSO, and their absorbance was measured at 570 nm by a spectrophotometric microtiter plate reader (PerkinElmer Victor 3 1420 Multilabel Plate Counter). Cell viability was calculated as the percentage of nontreated control cells. The mean IC50 values were obtained from three independent experiments. Each experiment was conducted in triplicate with at least five concentrations of the tested compounds. The GraphPad Prism software (version 5) was used to calculate the average IC50 and standard deviation (S.D.) values for each experiment. Cisplatin and doxorubicin were used as the positive controls, while 0.2% DMSO served as the negative control.

[2] = system: H460 non-small-cell lung cancer cell line; assay: cells; conditions: for IC50: H460, MTT, 72 h, read-out: IC50 ± S.D. H460
Experimental: as §1, §2

[3] = system: non-tumorigenic bronchial epithelial (BEAS-2B) cell line; assay: MTT cell viability on normal cell line BEAS-2B; conditions: BEAS-2B normal cell line, 24 h, read-out: IC50 ± S.D. BEAS-2B
Experimental: (§3) DP and BEAS-2B were seeded into 96-well plates at densities of 1 × 10^4 cells per well, while HaCaT cells were seeded at densities of 5 × 10^3 cells per well. The cells were allowed to adhere for 24 h. Subsequently, the cells were treated with various concentrations of compounds 3a–3o, 4a, and 4b at 72 h for DP cells and at 24 h for HaCaT and BEAS-2B cells. After the treatment period, cells were incubated with 0.5 mg/ml of MTT for 2 h. The resulting MTT product was measured at 570 nm using a spectrophotometric microplate reader. Cell viability was calculated by comparing the optical density (OD) measurements to those of the untreated control, and the results were expressed as a percentage.

[4] = system: human keratinocyte (HaCaT) cell line; assay: MTT cell viability on normal cell line HaCaT; conditions: 24 h, read-out: IC50 ± S.D. HaCaT
Experimental: as §3

[5] = system: dermal papilla (DP) cell line; assay: MTT cell viability on normal cell line DP; conditions: 72 h
Experimental: as §3

Compound | IC50 [1] [nM] | IC50 [2] [nM] | IC50 [3] [nM] | IC50 [4] [nM] | IC50 [5] [nM] | IC50 ([1]; Homo sapiens, NCI-H292) [nM] | IC50 ([2]; Homo sapiens, NCI-H460) [nM] | IC50 ([3]; Homo sapiens) [nM] | IC50 ([4]; Homo sapiens) [nM] | Reduction in cytotoxicity against H292 [1] [fold] | Reduction in cytotoxicity against H460 [2]
N.N.[Cl][Pt][Cl] [Cisplatin, reference compound] | 4230 | 3860 | > 20000 | 14300 | 10800 | – | – | – | – | – | –
CC=C(C)C(=O)OCC1c2c(c(O)c(C)c3c2OCO3)CC2C3C4=C(CC(C(C#N)N12)N3C)C(=O)C(C)=C(OC)C4=O (stereo not drawn) [Compound 2, renieramycin T] | – | – | – | – | 51 ± 0.08 | 72.8 ± 2.88 | 84 ± 3.63 | 163 ± 24.2 | 89.2 ± 4.29 | – | –
CC=C(C)C(=O)OCC1c2c(c(OC(C)=O)c(C)c3c2OCO3)CC2C3C4=C(CC(C(C#N)N12)N3C)C(=O)C(C)=C(OC)C4=O (stereo not drawn) [Compound 3a, 5-O-acetyl renieramycin T] | – | – | – | – | 11.7 ± 0.59 | 43.4 ± 3 | 35.7 ± 2.11 | > 250 | 9.49 ± 2.12 | – | –
C/C=C(/C)C(=O)OC[C@H]1c2c(c(OC(=O)CNC(=O)OC(C)(C)C)c(C)c3c2OCO3)C[C@H]2[C@H]3C4=C(C[C@@H]([C@H](C#N)N12)N3C)C(=O)C(C)=C(OC)C4=O [Compound 3c] | – | – | – | – | 5.35 ± 0.27 | 39 ± 5.63 | 41.6 ± 4.15 | > 250 | 23.1 ± 1.38 | – | –
C/C=C(/C)C(=O)OC[C@H]1c2c(c(OC(=O)[C@H](C)NC(=O)OC(C)(C)C)c(C)c3c2OCO3)C[C@H]2[C@H]3C4=C(C[C@@H]([C@H](C#N)N12)N3C)C(=O)C(C)=C(OC)C4=O [Compound 3d, 5-O-(N-Boc-L-alanine)-renieramycin T] | – | – | – | – | 25.8 ± 1.05 | 39.5 ± 1.18 | 33 ± 1.55 | 232 ± 26.1 | 58.5 ± 6.68 | – | –
C/C=C(/C)C(=O)OC[C@H]1c2c(c(OC(=O)[C@@H](NC(=O)OC(C)(C)C)C(C)C)c(C)c3c2OCO3)C[C@H]2[C@H]3C4=C(C[C@@H]([C@H](C#N)N12)N3C)C(=O)C(C)=C(OC)C4=O [Compound 3e] | – | – | – | – | 50 ± 1.49 | 89.6 ± 5.03 | 76.1 ± 2.77 | > 250 | 80.2 ± 4.1 | – | –
C/C=C(/C)C(=O)OC[C@H]1c2c(c(OC(=O)[C@H](Cc3ccccc3)NC(=O)OC(C)(C)C)c(C)c3c2OCO3)C[C@H]2[C@H]3C4=C(C[C@@H]([C@H](C#N)N12)N3C)C(=O)C(C)=C(OC)C4=O [Compound 3f] | – | – | – | – | 39.8 ± 9.88 | 54.1 ± 4.78 | 50.7 ± 3.5 | 181 ± 12.1 | 61.2 ± 3.43 | – | –
C/C=C(/C)C(=O)OC[C@H]1c2c(c(OC(=O)c3ccccn3)c(C)c3c2OCO3)C[C@H]2[C@H]3C4=C(C[C@@H]([C@H](C#N)N12)N3C)C(=O)C(C)=C(OC)C4=O [Compound 3g] | – | – | – | – | 35.2 ± 4.13 | 51.5 ± 1.67 | 43.6 ± 1.36 | > 250 | 74.3 ± 6.88 | – | –
C/C=C(/C)C(=O)OC[C@H]1c2c(c(OC(=O)c3ccncc3)c(C)c3c2OCO3)C[C@H]2[C@H]3C4=C(C[C@@H]([C@H](C#N)N12)N3C)C(=O)C(C)=C(OC)C4=O [Compound 3h] | – | – | – | – | 4.83 ± 2.18 | 35.3 ± 1.09 | 35.6 ± 1.64 | 223 ± 23.1 | 53.8 ± 7.07 | – | –
C/C=C(/C)C(=O)OC[C@H]1c2c(c(OC(=O)c3ccc4ccccc4n3)c(C)c3c2OCO3)C[C@H]2[C@H]3C4=C(C[C@@H]([C@H](C#N)N12)N3C)C(=O)C(C)=C(OC)C4=O [Compound 3i, 5-O-(2-quinolinecarbonyl) ester] | – | – | – | – | 8.77 ± 1.94 | 36.5 ± 1.82 | 43.3 ± 4.29 | 151 ± 19 | 28 ± 3.76 | – | –
C/C=C(/C)C(=O)OC[C@H]1c2c(c(OC(=O)c3cnc4ccccc4c3)c(C)c3c2OCO3)C[C@H]2[C@H]3C4=C(C[C@@H]([C@H](C#N)N12)N3C)C(=O)C(C)=C(OC)C4=O [Compound 3j, 5-O-(3-quinolinecarbonyl) ester] | – | – | – | – | 37.6 ± 0.47 | 77.8 ± 5.79 | 86.1 ± 6.34 | > 250 | 109 ± 7.38 | – | –
C/C=C(/C)C(=O)OC[C@H]1c2c(c(OC(=O)/C=C/c3cccnc3)c(C)c3c2OCO3)C[C@H]2[C@H]3C4=C(C[C@@H]([C@H](C#N)N12)N3C)C(=O)C(C)=C(OC)C4=O [Compound 3k] | – | – | – | – | 8.36 ± 2.31 | 36.3 ± 2.06 | 38.8 ± 7.25 | 114 ± 13.2 | 9.64 ± 0.93 | – | –
C/C=C(/C)C(=O)OC[C@H]1c2c(c(OC(=O)c3c[nH]c4ccccc34)c(C)c3c2OCO3)C[C@H]2[C@H]3C4=C(C[C@@H]([C@H](C#N)N12)N3C)C(=O)C(C)=C(OC)C4=O [Compound 3l] | – | – | – | – | 72.1 ± 3.01 | 69.4 ± 1.61 | 57.9 ± 0.77 | > 250 | 109 ± 6.99 | – | –
C/C=C(/C)C(=O)OC[C@H]1c2c(c(OC(=O)c3ccco3)c(C)c3c2OCO3)C[C@H]2[C@H]3C4=C(C[C@@H]([C@H](C#N)N12)N3C)C(=O)C(C)=C(OC)C4=O [Compound 3m] | – | – | – | – | 25.29 ± 0.24 | 42.5 ± 3.84 | 42.9 ± 5.21 | > 250 | 42.1 ± 3.13 | – | –
C/C=C(/C)C(=O)OC[C@H]1c2c(c(OC(=O)c3cccs3)c(C)c3c2OCO3)C[C@H]2[C@H]3C4=C(C[C@@H]([C@H](C#N)N12)N3C)C(=O)C(C)=C(OC)C4=O [Compound 3n, 5-O-(2-thiophenecarbonyl) ester] | – | – | – | – | 68.6 ± 6.25 | 137 ± 6.3 | 123 ± 4.99 | > 250 | 139 ± 6.16 | – | –
C/C=C(/C)C(=O)OC[C@H]1c2c(c(OC(=O)c3ccc[nH]3)c(C)c3c2OCO3)C[C@H]2[C@H]3C4=C(C[C@@H]([C@H](C#N)N12)N3C)C(=O)C(C)=C(OC)C4=O [Compound 3o] | – | – | – | – | 50 ± 7.81 | 56.9 ± 2.66 | 58.3 ± 3.56 | 220 ± 29.7 | 65.2 ± 1.52 | – | –
C/C=C(/C)C(=O)OC[C@H]1C2=C(C[C@H]3[C@H]4C5=C(C[C@@H]([C@H](C#N)N13)N4C)C(=O)C(C)=C(OC)C5=O)C(=O)C(C)=C(OC(=O)CC)C2=O [Compound 4a, 7-O-(propanoyl) ester derivative of renieramycin S] | – | – | – | – | 77.4 ± 9.9 | 99.87 ± 0.91 | 164 ± 4.16 | > 250 | 230 ± 22.7 | 3 | fivefold
C/C=C(/C)C(=O)OC[C@H]1C2=C(C[C@H]3[C@H]4C5=C(C[C@@H]([C@H](C#N)N13)N4C)C(=O)C(C)=C(OC)C5=O)C(=O)C(C)=C(OC(=O)c1cccnc1)C2=O [Compound 4b, 7-O-(3-pyridinecarbonyl) ester derivative of renieramycin S] | – | – | – | – | 67.5 ± 5.46 | 100 ± 1.59 | 104 ± 2.2 | > 250 | 192 ± 22.2 | 3 | fivefold
COc1cccc2c1C(=O)c1c(O)c3c(c(O)c1C2=O)C[C@@](O)(C(=O)CO)C[C@@H]3O[C@H]1C[C@H](N)[C@H](O)[C@H](C)O1 [Doxorubicin, reference compound] | – | – | – | – | 58 ± 24.4 | 40.8 ± 6.89 | 43.9 ± 6.26 | 663 | 915 ± 50.2 | – | –
